# Measured values published in ChEMBL document CHEMBL1201862, “PubChem BioAssay data set” (2004).
# Activity calls are given as the source filed them.
# Key:
# Saccharomyces cerevisiae = assay: NALP1 inhibitor project selectivity study, Caspase-1/ASC signal blockade IC50 in S. cerevisiae (AID 488863); type: functional, organism-based
# [1] = molecular target: T1, Calpain-2 catalytic subunit (Sus scrofa, UniProt P43367); assay: pig calpain II inhibitor potency, dose response, biochemical, fluorogenic peptide substrate (AID 1420); type: functional
# T1 sequence (P43367 whole entry): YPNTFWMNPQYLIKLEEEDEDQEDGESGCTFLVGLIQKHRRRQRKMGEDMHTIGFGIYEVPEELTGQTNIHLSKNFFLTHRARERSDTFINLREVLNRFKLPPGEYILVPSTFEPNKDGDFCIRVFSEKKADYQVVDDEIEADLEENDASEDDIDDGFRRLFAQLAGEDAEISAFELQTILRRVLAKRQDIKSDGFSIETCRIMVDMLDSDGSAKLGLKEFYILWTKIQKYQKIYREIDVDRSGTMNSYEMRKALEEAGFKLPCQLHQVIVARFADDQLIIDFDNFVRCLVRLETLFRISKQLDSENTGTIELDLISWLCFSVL
# [2] = molecular target: NACHT, LRR and PYD domains-containing protein 1 (Homo sapiens, UniProt Q9C000); assay: NALP1 inhibitors in yeast, dose response, luminescent (AID 488860); type: functional
# [3] = molecular target: NACHT, LRR and PYD domains-containing protein 3 (Homo sapiens, UniProt Q96P20); assay: NALP3 inhibitors in yeast, dose response, luminescent (AID 488799); type: functional
# NACHT, LRR and PYD domains-containing protein 3, sequence (Q96P20 whole entry, the tested form may be a part): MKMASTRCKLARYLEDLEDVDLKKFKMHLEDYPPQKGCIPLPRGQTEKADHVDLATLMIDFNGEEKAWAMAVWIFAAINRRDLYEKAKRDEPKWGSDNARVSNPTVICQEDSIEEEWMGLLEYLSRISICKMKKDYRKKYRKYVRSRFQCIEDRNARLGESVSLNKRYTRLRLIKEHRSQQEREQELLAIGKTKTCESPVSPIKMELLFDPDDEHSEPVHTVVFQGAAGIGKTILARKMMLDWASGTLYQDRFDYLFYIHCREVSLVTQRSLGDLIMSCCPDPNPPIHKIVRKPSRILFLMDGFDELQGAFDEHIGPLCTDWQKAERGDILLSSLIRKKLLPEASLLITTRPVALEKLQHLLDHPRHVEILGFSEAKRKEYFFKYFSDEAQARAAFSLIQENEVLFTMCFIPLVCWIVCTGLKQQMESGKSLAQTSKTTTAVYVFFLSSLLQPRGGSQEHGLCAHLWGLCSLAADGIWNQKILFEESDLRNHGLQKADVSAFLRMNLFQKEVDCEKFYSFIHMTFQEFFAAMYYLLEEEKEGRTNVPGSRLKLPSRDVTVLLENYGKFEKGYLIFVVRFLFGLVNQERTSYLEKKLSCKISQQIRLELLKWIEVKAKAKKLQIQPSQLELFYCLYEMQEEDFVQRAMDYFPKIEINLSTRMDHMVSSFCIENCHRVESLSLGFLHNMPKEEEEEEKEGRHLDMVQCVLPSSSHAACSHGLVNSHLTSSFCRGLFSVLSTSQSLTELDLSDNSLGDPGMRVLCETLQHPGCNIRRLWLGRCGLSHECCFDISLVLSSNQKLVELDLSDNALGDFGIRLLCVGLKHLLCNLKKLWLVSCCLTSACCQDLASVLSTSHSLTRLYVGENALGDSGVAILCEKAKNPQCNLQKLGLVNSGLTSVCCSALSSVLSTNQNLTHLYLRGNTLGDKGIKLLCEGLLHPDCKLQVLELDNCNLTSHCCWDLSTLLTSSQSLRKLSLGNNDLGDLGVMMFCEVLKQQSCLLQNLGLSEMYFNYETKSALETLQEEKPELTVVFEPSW
# [4] = Luminescence Cell-Based Dose Response HTS to Identify Activators of Luciferase Translation or Activity in H4 […] Cells. [Related pubchem assays: 1829 (Project Summary), 1814 (Primary HTS)]; type: functional
# [5] = Luminescence Cell-Based Dose Confirmation HTS to Identify Activators of 5'UTR Stem-Loop Driven Alpha-Synuclein mRNA Translation in H4 Neuroglioblastoma Cells. [Related pubchem assays: 1829 (Project Summary), 1814 (Primary HTS)]; type: functional
# H4 = assay: Luminescence Cell-Based Dose Response HTS to Identify Activators of 5'UTR Stem-Loop Driven Prion Protein mRNA Translation in H4 Neuroglioblastoma Cells. [Related pubchem assays: 1829 (Project Summary), 1814 (Primary HTS)]; type: functional; settings: Homo sapiens
# [6] = Cytotoxicity screening for potential Inhibitors of Bacterial Capsule Biogenesis. [Related pubchem assays (depositor defined):AID488970]; type: functional
# [7] = molecular target: T2, Nucleotide-binding oligomerization domain-containing protein 2 (Homo sapiens, UniProt Q9HC29); assay: NOD2 signaling inhibitors, cell-based, luminescence, uHTS, HEK293 (AID 1566); type: functional
# T2 sequence (Q9HC29 whole entry, the tested form may be a part): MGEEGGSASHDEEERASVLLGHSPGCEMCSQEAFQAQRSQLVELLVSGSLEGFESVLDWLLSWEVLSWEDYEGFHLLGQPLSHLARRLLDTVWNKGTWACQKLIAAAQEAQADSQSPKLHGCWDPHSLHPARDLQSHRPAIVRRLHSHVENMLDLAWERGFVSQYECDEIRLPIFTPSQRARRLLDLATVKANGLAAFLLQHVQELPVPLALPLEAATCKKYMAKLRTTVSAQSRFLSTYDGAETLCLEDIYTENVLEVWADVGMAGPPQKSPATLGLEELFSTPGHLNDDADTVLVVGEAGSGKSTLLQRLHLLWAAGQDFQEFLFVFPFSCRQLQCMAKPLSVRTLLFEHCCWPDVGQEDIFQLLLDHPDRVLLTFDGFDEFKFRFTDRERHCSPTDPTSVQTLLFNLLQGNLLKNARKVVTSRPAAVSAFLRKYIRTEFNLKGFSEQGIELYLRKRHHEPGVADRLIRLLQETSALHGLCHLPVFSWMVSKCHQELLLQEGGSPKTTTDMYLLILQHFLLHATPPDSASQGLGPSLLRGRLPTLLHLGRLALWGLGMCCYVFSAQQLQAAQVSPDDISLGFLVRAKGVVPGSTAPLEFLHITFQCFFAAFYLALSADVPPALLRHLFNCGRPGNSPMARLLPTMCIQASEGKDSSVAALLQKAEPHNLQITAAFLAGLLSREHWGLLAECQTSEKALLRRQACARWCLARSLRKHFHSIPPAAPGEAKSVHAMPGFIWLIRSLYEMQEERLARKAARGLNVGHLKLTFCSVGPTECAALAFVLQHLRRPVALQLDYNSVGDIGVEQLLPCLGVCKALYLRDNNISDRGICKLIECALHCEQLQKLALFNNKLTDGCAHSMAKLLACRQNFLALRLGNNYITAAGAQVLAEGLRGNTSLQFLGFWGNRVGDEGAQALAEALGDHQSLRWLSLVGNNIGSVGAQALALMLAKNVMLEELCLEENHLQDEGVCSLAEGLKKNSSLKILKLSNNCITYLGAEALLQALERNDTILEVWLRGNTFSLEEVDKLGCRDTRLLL
# Tumor necrosis factor = Tumor necrosis factor (Homo sapiens, UniProt P01375); assay: TNFa-triggered NF-kB activation inhibitors, SAR follow-up, cell-based, revised (AID 2337); type: functional
# Tumor necrosis factor, sequence (P01375 whole entry, the tested form may be a part): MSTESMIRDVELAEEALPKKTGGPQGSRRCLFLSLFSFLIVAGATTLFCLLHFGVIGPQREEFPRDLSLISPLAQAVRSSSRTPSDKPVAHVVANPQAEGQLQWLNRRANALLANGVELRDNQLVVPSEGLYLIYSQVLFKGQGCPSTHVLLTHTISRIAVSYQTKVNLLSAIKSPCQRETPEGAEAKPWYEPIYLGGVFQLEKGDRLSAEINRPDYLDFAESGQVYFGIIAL
# [8] = molecular target: T2, Nucleotide-binding oligomerization domain-containing protein 2; assay: PubChem AID 2334; type: functional
# [9] = molecular target: Nucleotide-binding oligomerization domain-containing protein 1 (Homo sapiens, UniProt Q9Y239); assay: NOD1 signaling inhibitors, SAR follow-up, revised (AID 2333); type: functional
# Nucleotide-binding oligomerization domain-containing protein 1, sequence (Q9Y239 whole entry, the tested form may be a part): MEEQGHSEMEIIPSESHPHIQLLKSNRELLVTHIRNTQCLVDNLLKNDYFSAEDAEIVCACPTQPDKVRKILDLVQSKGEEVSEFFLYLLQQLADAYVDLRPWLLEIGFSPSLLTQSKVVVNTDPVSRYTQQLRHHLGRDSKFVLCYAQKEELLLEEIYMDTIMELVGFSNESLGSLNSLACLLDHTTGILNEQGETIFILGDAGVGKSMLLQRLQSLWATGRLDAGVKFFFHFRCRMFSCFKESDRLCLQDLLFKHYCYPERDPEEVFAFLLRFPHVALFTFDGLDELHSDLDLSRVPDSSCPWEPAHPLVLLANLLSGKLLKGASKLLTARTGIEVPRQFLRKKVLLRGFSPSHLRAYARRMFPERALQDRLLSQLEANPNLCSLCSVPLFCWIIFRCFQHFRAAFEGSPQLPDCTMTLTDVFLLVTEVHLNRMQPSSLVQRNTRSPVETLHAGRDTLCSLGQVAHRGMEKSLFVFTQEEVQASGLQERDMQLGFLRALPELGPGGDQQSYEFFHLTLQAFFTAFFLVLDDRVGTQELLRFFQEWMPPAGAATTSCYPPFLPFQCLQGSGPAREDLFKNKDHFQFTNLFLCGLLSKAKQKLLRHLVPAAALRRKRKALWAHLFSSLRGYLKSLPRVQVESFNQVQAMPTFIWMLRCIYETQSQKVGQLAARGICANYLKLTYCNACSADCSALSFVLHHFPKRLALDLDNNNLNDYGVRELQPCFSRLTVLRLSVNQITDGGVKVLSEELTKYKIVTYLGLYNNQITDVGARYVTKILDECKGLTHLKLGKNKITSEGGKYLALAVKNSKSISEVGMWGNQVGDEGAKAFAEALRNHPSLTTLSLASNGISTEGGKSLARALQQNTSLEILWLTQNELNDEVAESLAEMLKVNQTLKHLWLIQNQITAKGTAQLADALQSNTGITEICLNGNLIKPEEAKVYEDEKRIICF
# Phospholipase A2 = Phospholipase A2 (Homo sapiens, UniProt P04054); type: functional;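 also: confirmatory dose-response counterscreen on phospholipase A2, testing hits that came from an ultra-high-throughput screen for ATG4B inhibitors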
# Phospholipase A2, sequence (P04054 whole entry): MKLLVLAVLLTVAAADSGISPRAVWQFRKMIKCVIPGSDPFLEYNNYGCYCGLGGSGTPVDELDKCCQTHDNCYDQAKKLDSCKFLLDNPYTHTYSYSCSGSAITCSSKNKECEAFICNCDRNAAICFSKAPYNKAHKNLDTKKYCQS
# [10] = molecular target: T3, Short transient receptor potential channel 4 (Mus musculus, UniProt Q9QUQ5); assay: mouse TRPC4 channel inhibitors, dose response, cell-based, HEK293 TRPC4/mu-opioid, Fluo-4 calcium (AID 434942); type: functional;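 also: potency of inhibitors blocking the TRPC4 calcium response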
# T3 sequence (Q9QUQ5 whole entry): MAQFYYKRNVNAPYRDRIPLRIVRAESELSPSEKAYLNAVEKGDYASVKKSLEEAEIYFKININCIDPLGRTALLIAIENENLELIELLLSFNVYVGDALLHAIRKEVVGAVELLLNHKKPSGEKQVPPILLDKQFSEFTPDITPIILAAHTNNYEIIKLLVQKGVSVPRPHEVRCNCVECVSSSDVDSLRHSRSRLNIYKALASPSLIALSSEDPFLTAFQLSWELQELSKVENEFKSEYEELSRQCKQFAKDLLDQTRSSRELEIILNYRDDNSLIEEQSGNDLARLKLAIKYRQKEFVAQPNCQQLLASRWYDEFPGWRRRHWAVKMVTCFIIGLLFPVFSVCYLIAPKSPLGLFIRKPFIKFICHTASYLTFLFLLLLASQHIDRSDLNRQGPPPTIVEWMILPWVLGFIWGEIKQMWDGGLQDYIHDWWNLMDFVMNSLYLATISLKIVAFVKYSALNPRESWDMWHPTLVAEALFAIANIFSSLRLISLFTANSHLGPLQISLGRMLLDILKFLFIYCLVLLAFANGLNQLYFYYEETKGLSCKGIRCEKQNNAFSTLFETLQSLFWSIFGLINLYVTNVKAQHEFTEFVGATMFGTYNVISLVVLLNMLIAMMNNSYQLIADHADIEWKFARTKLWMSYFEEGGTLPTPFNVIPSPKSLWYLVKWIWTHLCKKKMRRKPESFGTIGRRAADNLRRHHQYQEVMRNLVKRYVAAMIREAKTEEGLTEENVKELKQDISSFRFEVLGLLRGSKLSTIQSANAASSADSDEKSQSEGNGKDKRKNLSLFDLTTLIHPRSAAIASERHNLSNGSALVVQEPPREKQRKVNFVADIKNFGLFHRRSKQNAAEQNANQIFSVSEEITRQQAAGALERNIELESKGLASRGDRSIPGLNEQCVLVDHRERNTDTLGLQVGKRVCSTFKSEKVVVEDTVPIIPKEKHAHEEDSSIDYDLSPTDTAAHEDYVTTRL
# Cysteine protease ATG4B = molecular target: T4, Cysteine protease ATG4B (Homo sapiens, UniProt Q9Y4P1); type: functional;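 also: Fluorescence-based dose-response confirmation assay measuring inhibition of ATG4B activity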
# T4 sequence (Q9Y4P1 whole entry): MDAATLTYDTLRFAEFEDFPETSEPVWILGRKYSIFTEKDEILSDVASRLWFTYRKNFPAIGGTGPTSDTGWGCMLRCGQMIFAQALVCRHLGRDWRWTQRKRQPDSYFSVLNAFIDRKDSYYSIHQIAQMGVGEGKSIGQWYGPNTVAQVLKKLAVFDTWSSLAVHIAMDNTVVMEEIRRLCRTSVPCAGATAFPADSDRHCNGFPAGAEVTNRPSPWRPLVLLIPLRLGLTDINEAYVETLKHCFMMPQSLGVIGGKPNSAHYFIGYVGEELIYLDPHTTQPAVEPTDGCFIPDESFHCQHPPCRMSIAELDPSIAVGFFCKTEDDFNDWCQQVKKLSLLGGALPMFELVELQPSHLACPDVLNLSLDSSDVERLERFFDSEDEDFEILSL
# [11] = cytotoxicity toward NIH3T3 fibroblasts, dose response, counter-screen, cell-based, ATP luminescence, mouse fibroblasts (AID 2010); type: functional;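 also: cells exposed to compound for about 90 hours before reading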
# [12] = molecular target: T5, G-protein coupled receptor 35 (Homo sapiens, UniProt Q9HC97); assay: GPR35 antagonists blocking zaprinast-driven arrestin recruitment, primary screen, imaging, U2OS, beta-arrestin-GFP, zaprinast agonist (AID 2058); type: functional;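 also: antagonist potency meaning inhibition of agonist-induced arrestin redistribution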
# T5 sequence (Q9HC97 whole entry): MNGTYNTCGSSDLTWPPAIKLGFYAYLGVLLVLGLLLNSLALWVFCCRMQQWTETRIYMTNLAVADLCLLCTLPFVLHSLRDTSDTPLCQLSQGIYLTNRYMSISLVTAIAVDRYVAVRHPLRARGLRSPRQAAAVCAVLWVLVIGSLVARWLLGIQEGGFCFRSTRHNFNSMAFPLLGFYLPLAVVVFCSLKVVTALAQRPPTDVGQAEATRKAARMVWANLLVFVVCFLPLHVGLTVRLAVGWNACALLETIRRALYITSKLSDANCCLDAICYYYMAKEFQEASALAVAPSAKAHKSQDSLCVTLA
# [13] = molecular target: T5, G-protein coupled receptor 35; assay: SAR Analysis for the identification of Selective Antagonists of ERK1/2 Activity in GPR35-Overexpressing U2OS Cells. [Related pubchem assays: 2079, 2058 ]; type: functional, cell-based
# [14] = inhibitors of intracellular T. cruzi replication, confirmation, NIH3T3 host cells, beta-gal luminescence (AID 2044); type: functional, cell-based;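 also: intracellular parasites grown in NIH/3T3 mouse fibroblasts as host cells; luminescent beta-galactosidase reporter signal from transgenic T. cruzi replicating inside host cells; inhibitors lower the luminescence signal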
# [15] = molecular target: G-protein coupled receptor 55 (Homo sapiens, UniProt Q9Y2T6); assay: GPR55 antagonists, SAR follow-up, counter-screen for GPR35 antagonist project, imaging, image-based (AID 2397); type: functional
# G-protein coupled receptor 55, sequence (Q9Y2T6 whole entry): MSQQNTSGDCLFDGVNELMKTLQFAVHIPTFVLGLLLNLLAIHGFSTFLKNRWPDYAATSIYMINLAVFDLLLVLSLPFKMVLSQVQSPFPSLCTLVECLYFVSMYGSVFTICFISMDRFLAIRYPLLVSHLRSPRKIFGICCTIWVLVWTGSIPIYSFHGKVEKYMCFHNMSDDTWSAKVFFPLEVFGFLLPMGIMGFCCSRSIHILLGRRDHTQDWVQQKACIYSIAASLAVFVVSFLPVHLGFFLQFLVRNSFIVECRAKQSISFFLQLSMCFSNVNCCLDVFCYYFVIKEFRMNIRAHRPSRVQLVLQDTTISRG
# Bcl-2-like protein 10 = Bcl-2-like protein 10 (Homo sapiens, UniProt Q9HD36); assay: displacers of TR3 peptide from Bcl-B, primary screen, selectivity assay for Bfl-1 inhibitor project, biochemical, fluorescence polarization, FITC-TR3 peptide (AID 748);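 also: fluorescence polarization from a fluorescein-labelled TR3 peptide binding purified Bcl-B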
# Bcl-2-like protein 10, sequence (Q9HD36 whole entry): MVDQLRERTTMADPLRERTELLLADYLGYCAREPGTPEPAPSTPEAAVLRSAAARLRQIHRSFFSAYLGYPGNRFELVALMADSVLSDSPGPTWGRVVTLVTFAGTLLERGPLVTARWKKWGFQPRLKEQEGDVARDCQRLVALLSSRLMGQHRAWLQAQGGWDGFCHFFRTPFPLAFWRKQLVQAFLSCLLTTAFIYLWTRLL
# [16] = molecular target: DNA dC->dU-editing enzyme APOBEC-3G (Homo sapiens, UniProt Q9HC16); assay: Dose Response confirmation of small molecule APOBEC3G DNA Deaminase Inhibitors via a fluorescence-based single-stranded DNA deaminase assay. [Related pubchem assays (depositor defined):AID493012, AID493028]; type: functional
# DNA dC->dU-editing enzyme APOBEC-3G, sequence (Q9HC16 whole entry): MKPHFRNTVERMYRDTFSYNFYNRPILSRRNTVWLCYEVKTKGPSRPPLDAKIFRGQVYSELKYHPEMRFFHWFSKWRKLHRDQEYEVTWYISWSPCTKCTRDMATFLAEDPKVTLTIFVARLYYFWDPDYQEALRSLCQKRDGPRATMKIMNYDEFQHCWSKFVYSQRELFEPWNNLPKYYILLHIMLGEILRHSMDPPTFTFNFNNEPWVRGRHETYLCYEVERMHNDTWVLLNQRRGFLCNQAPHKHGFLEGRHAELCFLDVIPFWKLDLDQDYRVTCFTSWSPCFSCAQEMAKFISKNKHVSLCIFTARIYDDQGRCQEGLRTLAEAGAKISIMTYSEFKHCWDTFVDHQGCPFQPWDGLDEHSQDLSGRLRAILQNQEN
# [17] = molecular target: DNA dC->dU-editing enzyme APOBEC-3A (Homo sapiens, UniProt P31941); assay: APOBEC3A DNA deaminase inhibitors, dose response, biochemical (AID 504722); type: functional
# DNA dC->dU-editing enzyme APOBEC-3A, sequence (P31941 whole entry): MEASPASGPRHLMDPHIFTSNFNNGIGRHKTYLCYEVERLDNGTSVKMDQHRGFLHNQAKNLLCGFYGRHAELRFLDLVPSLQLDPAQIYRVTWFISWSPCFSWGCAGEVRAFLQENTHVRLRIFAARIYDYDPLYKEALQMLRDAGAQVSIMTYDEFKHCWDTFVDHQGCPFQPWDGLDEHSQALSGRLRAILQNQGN
smiles,measurement,setting,value
O=S(=O)(Nc1ccc(-n2cccc2)cc1)c1ccc(Cl)cc1Cl,IC50,Saccharomyces cerevisiae,56.8 µM (active)
same,IC50,[1],9.85 µM (not active)
same,IC50,[2],18.3 µM (active)
COc1ccc(NC(=O)C#Cc2ccccc2)cc1,IC50,[3],8.01 µM (active)
same,EC50,[4],32.6 µM (active)
same,EC50,[5],0.192 µM (active)
same,EC50,H4,22.1 µM (active)
C=CCOc1ccc(C2c3c(oc4ccccc4c3=O)C(=O)N2CCCN2CCOCC2)cc1 (stereo not drawn),CC50,[6],> 100 µM (active)
Cc1ccc(CSc2nc(-c3ccccc3)c(C#N)c(=O)[nH]2)cc1,EC50,[7],13.2 µM (active)
same,IC50,Tumor necrosis factor,8.2 µM (active)
same,IC50,[8],6.9 µM (active)
same,IC50,[9],5.5 µM (active)
same,IC50,Phospholipase A2,21.2 µM (inactive)
same,EC50,[10],5.31 µM (active)
same,IC50,Cysteine protease ATG4B,7.62 µM (active)
Cc1ccc(Cn2ncc3c(N4CCN(c5ccccc5C)CC4)ncnc32)cc1,EC50,[11],> 60 µM (not active)
same,IC50,[12],0.761 µM (active)
same,IC50,[13],17.7 µM (not active)
same,EC50,[14],1.6 µM (active)
same,IC50,[15],> 32 µM (inactive)
Cc1cc2cc(CN(Cc3ccco3)S(=O)(=O)c3c(C)ccc4nsnc34)c(=O)[nH]c2cc1C,IC50,Bcl-2-like protein 10,> 100 µM (inactive)
Sc1nnc(-c2ccc(Cl)cc2)n1CC1CCCO1 (stereo not drawn),IC50,[16],6.14 µM (active)
same,IC50,[17],> 100 µM (inactive)
